This data set is described as follows: Protective effect on dexamethasone-induced myotube cell damage (MTT assay). In kind it is cell-based. The note with it: mouse, C2C12 cells differentiated into myotubes, 5 μM dexamethasone alone, read-out: decrease of cell viability compared to the control group not treated with dexamethasone.

Experimental: C2C12 cells, a myoblast derived from mouse skeletal muscle, were purchased from American Type Culture Collection (ATCC) and used. C2C12 cells were cultured in a 37° C.-wet CO2 incubator (5% CO2/95% air) using a cell culture medium in which 10% fetal bovine serum (FBS), 100 units/mL penicillin, and 100 μg/mL streptomycin were added to Dulbecco's Modified Eagle Medium (DMEM). When the cells were 80% full, the cell monolayer was washed with phosphate buffer saline (PBS, pH 7.4), trypsin-2.65 mM EDTA was added thereto, and the cells were detached and subcultured, and the medium was exchanged every 2 days. In order to induce differentiation into myotubes of C2C12 cells, the cells were cultured by exchange with a myocyte differentiation culture medium in which 2% horse serum (HS) was added to DMEM medium, and the myocyte differentiation culture medium was exchanged every 2 days.
C2C12 cells were seeded in 24-well plate at 5×10^4 cells/well and cultured for 24 hours. Thereafter, in order to induce differentiation into myotubes of C2C12 cells, the cell culture medium was exchanged with the myocyte differentiation culture medium to induce differentiation for 4 days. […] After the cells were cultured for 24 hours, MTT assay was performed in the same manner as described above to measure the cell viability.

In the case of `C[C@@H]1C[C@H]2[C@@H]3CCC4=CC(=O)C=C[C@]4(C)[C@@]3(F)[C@@H](O)C[C@]2(C)[C@@]1(O)C(=O)CO` [dexamethasone], the cytotoxicity at 24 h, 5 μM was roughly 10%.

(Values after patent US20260174814A1 (DR. OREGONIN INC., priority 2023, published 2026).)
